Laboratory results taken from patent US12589143B2, “Human anti-PD-L1 peptide vaccines and methods of their use” (priority 2019, dated 2026).
Where no end group is shown, it is not given here.

How the values were obtained:
MVF-PD-L1 peptides = assay: Immunogenicity in rabbits: ELISA antibody titers of sera vs the immunogen; format: in vivo, New Zealand White rabbits; conditions: after the second boost
Procedure: Immunogenicity of MVF-PD-L1 B-cell epitopes. New Zealand White rabbits were immunized with 1 mg of each MVF-peptide immunogens dissolved in dd H2O emulsified (1:1) in Montanide ISA 720 vehicle (Seppic) with 333 μg of N-acetylglucosamine-3yl-acetyl-1-alanyl-d-isoglutamine (nor-MDP). Rabbits were boosted with the same doses at 3-week's intervals. Blood was collected via the central auricular artery in rabbits. Blood was collected weekly (1Y+3, 2Y+1, 2Y+2,2Y+3, 3Y+1, 3Y+2 and sera tested for antibody titers by ELISA using the immunogens MVF-PD-L1 peptides. Sera (terminal) from rabbit (3Y+3) immunized with MVF-PD-1 peptide immunogens were tested individually versus the immunogen by ELISA. 200 ng/well peptide were used in duplicates to coat the ELISA plates. Titers are defined as the highest dilution of sera with an absorbance value of 0.2 after subtracting the blank.
For each peptide, vaccine antibodies were raised using New Zealand white rabbits purchased from Charles River Laboratories (Wilmington, MA, USA). […] Antibody titers were monitored by direct ELISA against the peptide immunogen, the peptide B cell epitope, and an acetylated version of the B-cell epitope. […] Peptide vaccine antibodies were purified by affinity chromatography using a protein A/G column and the concentration was measured by Coomassie protein assay. […]

[1] = Mouse antibody isotyping assay; format: in vivo, Balb/c mice
Procedure: We also analyzed the different isotypes of antibodies being generated by vaccination.
Antibody isotypes (i.e. IgA, IgM, IgG1, IgG2a, IgG2b, IgG3) were determined using the Mouse Typer Isotyping Kit (BIO-RAD, Hercules, CA). Briefly, wells of a 96-well assay plate were coated with 200 ng peptide antigen in ddH2O, and incubated at 4° C. overnight. The plate was washed with washing buffer (0.05% Tween-20 and 1% horse sera in PBS). The plate was then blocked with 1% BSA in PBS at room temperature for 1 hour. 100 ul of diluted mice sera was added to each well for 2 hours and after washing the wells, 100 μl ready to use rabbit anti-mouse subclasses antibodies were added to each well respectively and incubated at room temperature for another 2 hours. The wells were washed again, 100 μl of 1/3000 dilution of goat anti-rabbit conjugated to HRP antibody (BIO-RAD, Hercules, CA) was added to each well and incubated for 1 hour at room temperature in dark. The plate was then washed and 50 μl prepared substrate solution was added to each well. The reaction was stopped with 25 μl 5% SDS stopping buffer. Absorbance at 415 nm was determined using an ELISA plate reader. Dilutions of each sera samples were determined by the ELISA titers shown in absorbance of 0.4 or higher after subtracting the background.

Sequence	antibody titers (MVF-PD-L1 peptides)	isotypes of antibodies elicited in the mice ([1]; experiment 1 (CT26 WT))	isotypes of antibodies elicited in the mice ([1]; experiment 2 (CT26/HER-2))
KLLSLIKGVIVHRLEGVEGPSLVTSEHELTCQAEGYPKAE (KLLSLIKGVIVHRLEGVEGPSLVTSEHELTCQAEGYPKAE-NH2) [PD-L1(130)]	64,000	predominantly of the IgG1 class	predominantly of the IgG1 class
KLLSLIKGVIVHRLEGVEGPSLYRCMISYGGADYKRITVK (KLLSLIKGVIVHRLEGVEGPSLYRCMISYGGADYKRITVK-NH2) [PD-L1(95)]	64,000		
